In US5834012A, “Lipid complexed topoisomerase I inhibitors” (Perez-Soler; Roman, priority 1995, dated 1998):
Where a name gives a salt, the structure may show the parent alone.

Assays:
[1] = Lipids screened for complexation with CPT (fluorescent microscopy; % bound); assay type: physicochemical; conditions: for % bound to CPT / Crystals: Table 1; for Crystals: lipid alone with CPT, fluorescent microscopy
Excerpt: (§1) In order to prepare LC-CPT (a liposomal preparation containing CPT within spherical lipid vesicles) various individual lipids were screened for complexation with CPT. […] CPT crystals and lipid/CPT complexes of >0.4 microns can be visualized under a fluorescent microscope (since CPT fluoresces due to its rigid ring structure). […] Therefore, the better a lipid complexes with CPT the less CPT crystals are formed, and the more lipid/CPT complexes are formed.
Drug/lipid Complex Preparation. CPT was mixed in ratios of from 2:1 to 25:1 w/w lipid:drug in chloroform-methanol (8:1). For studies where CPT was radiolabeled, approximately 0.02 uCi/ml [^3 H] CPT was added to the preparation. Trace quantities of ^14 C labeled cholesterol was added to samples requiring lipid labeling. For small samples, the lipids were dried in 12×75 mm culture tubes under a stream of nitrogen gas. For large samples, a rotavapor (Buchi RE140, Switzerland) was used to dry lipids in a 100 to 1000 ml round bottom flasks. […] For liposomal CPT 0.9% Nace was used. Preparations were screened for lipid entrapment by light and fluorescent microscopy (Nikon Labophot-2, Japan). […]
Lipids of varying carbon chain length, charge, and saturation, alone or in different combinations, were empirically screened for their ability to form liposomes incorporating CPT by fluorescent microscopy.

[2] = Chromatographic evaluation of CPT in the liposome fraction; assay type: physicochemical; conditions: lipid used alone
Procedure: Chromatography. A 30 cm agarose 0.5M column is used to separate liposome-bound drug from free CPT. PBS is used as the mobile phase for all preparations. Twenty samples were collected in 3 mL aliquots for a total of 60 mLs. Fluorescence and scintigraphy were used to detect encapsulated and free drug. Fluorimetry. Aliquots of 20 μl from each collection tube were transferred to cuvets containing 2 ml methanol. Fluorimetry was performed as described by Hart et al. (Hart et al., 1969). Fluorescence was measured at an excitation wavelength of 370 nm and emission wavelength of 434 nm (Perkin-Elmer MPF44A, Norwalk, Conn., U.S.A.). Two ml of ethanol was used as a control for machine calibration.
Chromatographic evaluation confirmed that <5% of CPT was incorporated in the liposome fraction of the preparation, the rest presumably being solubilized or in small particles not detectable by fluorescence microscopy.
These observation led the present inventors to other negatively charged lipids. […] Chromatographic evaluation of these preparations confirmed again that <5% of CPT eluted with the liposome fraction, the rest of the drug eluting later in a large number of consecutive fractions. By differential centrifugation, the lipid-binding efficiency of cardiolipin was about 67% and that of DO-NGPE 97%. DO-NGPE-CPT was, therefore, selected for further biological and pharmacological studies.

[3] = Complexation with CPT / liposome formation by fluorescent microscopy; assay type: physicochemical
Excerpt: as §1
Drug/lipid Complex Preparation. CPT was mixed in ratios of from 2:1 to 25:1 w/w lipid:drug in chloroform-methanol (8:1). For studies where CPT was radiolabeled, approximately 0.02 uCi/ml [^3 H] CPT was added to the preparation. Trace quantities of ^14 C labeled cholesterol was added to samples requiring lipid labeling. For small samples, the lipids were dried in 12×75 mm culture tubes under a stream of nitrogen gas. For large samples, a rotavapor (Buchi RE140, Switzerland) was used to dry lipids in a 100 to 1000 ml round bottom flasks. The lipophilic film was then vortexed in a Touch Mixer Model 231 (Fisher Scientific, Fair Lawn, N.J., U.S.A.) for one minute in sterile phosphate buffered saline (pH 7.4). For liposomal CPT 0.9% Nace was used. Preparations were screened for lipid entrapment by light and fluorescent microscopy (Nikon Labophot-2, Japan).
To increase the cytotoxic effects of LC-CPT relative to CPT, lipid must surround (encapsulate) the CPT to protect it from inactivation. Since the cytotoxicity of LC-CPT was similar to that of the free drug, the CPT was not encapsulated by the lipid (DO-NGPE). Encapsulation (and concomitant protection from inactivation) can be accomplished by surrounding CPT in a liposome (a unilamellar or multilamellar structure). […] Therefore, LC-CPT appears to only contain enough lipid to form micellar aggregates of CPT or to form a hydrophobic scaffold for CPT-CPT aggregation.
The inventors attempted to protect the CPT from inactivation by surrounding the existing DO-NGPE:CPT complex with a liposome (Table 3) or by adding another lipid to DO-NGPE to form a liposome. […]

[4] = Hertzberg et al., 1989; cited from earlier work
human tumors = conditions: cited from earlier work

| Structure (SMILES) | % bound to CPT [1] | Crystals [1] | further results |
| --- | --- | --- | --- |
| CCCCCCCC/C=C\CCCCCCCC(=O)OC[C@H](COP(=O)(O)OCC(O)CO)OC(=O)CCCCCCC/C=C\CCCCCCCC (mixture of isomers) [Dioleoyl PG, 1,2-Dioleoyl-sn-Glycero-3-[Phospho-rac-(1-glycerol)]] | < 5% | no | interaction with CPT (in words) [1]: lack of drug crystallization; CPT incorporated in / eluted with the liposome fraction [2]: < 5% |
| CCCCCCCC/C=C\CCCCCCCC(=O)O[C@H](COC(=O)CCCCCCCCCCCCCCCCC)COP(=O)([O-])OCC[N+](C)(C)C [1-Stearoyl, 2-Oleoyl PC] | < 5% | yes |  |
| CCCCCCCCCCCCCCCCCC(=O)OC[C@H](COP(=O)([O-])OCC[N+](C)(C)C)OC(=O)CCCCCCCCCCCCCCCCC [Distearoyl PC] | < 5% | yes |  |
| CCCCCCCC/C=C\CCCCCCCC(=O)OC[C@H](COP(=O)(O)OCCN)OC(=O)CCCCCCC/C=C\CCCCCCCC [DOPE, 1,2-Dioleoyl-sn-Glycero-3-Phosphoethanolamine] |  |  | complexation with CPT / liposome formation / CPT crystals (in words) [3]: complex well with CPT |
| CCCCCCCCCCCCCC(=O)OC[C@H](COP(=O)(O)OCC(O)CO)OC(=O)CCCCCCCCCCCCC (mixture of isomers) [Dimyristoyl PG, 1,2-Dimyristoyl-sn-Glycero-3-[Phospho-rac-(1-glycerol)]] | < 5% | yes |  |
| CCCCCCCC/C=C/CCCCCCCC(=O)OC[C@H](COP(=O)([O-])OCC[N+](C)(C)C)OC(=O)CCCCCCC/C=C/CCCCCCCC [Dielaidoyl PC] |  |  | complexation with CPT / liposome formation / CPT crystals (in words) [3]: complex well with CPT |
| CC[C@@](O)(C(=O)O)c1cc2n(c(=O)c1CO)Cc1cc3ccccc3nc1-2 [sodium salt of CPT, camptothecin sodium] |  |  | activity relative to closed lactone ring base (in words) [4]: significantly less active than the lipophilic base compound; dose-limiting toxicity (human tumors; clinical trials, early 1970's): dose-limiting leukopenia, cystitis, and gastroenteritis; clinical antitumor activity (in words) (human tumors; intestinal tumors metastatic to the liver): demonstrated activity in human tumors |
| CCCCCCCCCCCCCC(=O)OC[C@H](COP(=O)([O-])OCC[N+](C)(C)C)OC(=O)CCCCCCCCCCCCC [Dimyristoyl PC, 1,2-Dimyristoyl-sn-Glycero-3-Phosphocholine] | < 5% | yes |  |
| CCCCCCCC/C=C\CCCCCCCC(=O)OCC(C[N+](C)(C)C)OC(=O)CCCCCCC/C=C\CCCCCCCC (stereo not shown) [DOTAP, 1,2-Dioleoyl-3-Trimethylammonium-Propane] |  |  | complexation with CPT / liposome formation / CPT crystals (in words) [3]: complex well with CPT |
| CCCCCCCCCCCCCCCCCC(=O)OC[C@H](COP(=O)([O-])OCC[N+](C)(C)C)OC(=O)CCCCCCCCCCCCC [1-Stearoyl, 2-Myristdyl PC] | < 5% | yes |  |
| CCCCCC(=O)OC[C@H](COP(=O)([O-])OCC[N+](C)(C)C)OC(=O)CCCCC [Dicaproyl PC] | < 5% | yes |  |
